Here are results for five compounds from ChEMBL document CHEMBL4414585, “Inhibition Mechanisms of Indoleamine 2,3-Dioxygenase 1 (IDO1)” (J Med Chem, 2019).

A short description of data set [1]: Dissociation constant, pKa of the compound. In kind it is physicochemical.
Data set [2] deals with T1, Indoleamine 2,3-dioxygenase 1 (Homo sapiens, UniProt P14902). As to the kind of experiment: Inhibition of full-length human IDO1 expressed in Escherichia coli Rosetta (DE3) assessed as reduction in kynurenine production at 0.5 to 2.5 uM pre-incubated for 120 mins in presence of ascorbate and MB reductants before jump dilution with incubation medium containing L-Trp and further incubated for 20 mins by HPLC analysis.
Target sequence in this assay (P14902 whole entry, looked up): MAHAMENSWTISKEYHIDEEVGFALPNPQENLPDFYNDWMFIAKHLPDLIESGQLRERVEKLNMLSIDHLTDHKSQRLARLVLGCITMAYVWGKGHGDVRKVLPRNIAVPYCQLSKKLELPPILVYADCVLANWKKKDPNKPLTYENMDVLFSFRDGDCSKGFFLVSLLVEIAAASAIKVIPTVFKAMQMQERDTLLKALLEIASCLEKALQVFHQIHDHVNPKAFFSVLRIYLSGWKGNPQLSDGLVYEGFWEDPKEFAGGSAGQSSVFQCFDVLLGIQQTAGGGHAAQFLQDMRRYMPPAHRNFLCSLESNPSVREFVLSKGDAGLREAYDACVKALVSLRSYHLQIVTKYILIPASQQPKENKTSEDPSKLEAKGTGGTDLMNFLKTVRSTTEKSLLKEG

Data set [3] concerns the target T1, Indoleamine 2,3-dioxygenase 1. As to the kind of experiment: Inhibition of full-length human IDO1 expressed in Escherichia coli Rosetta (DE3) assessed as reduction in kynurenine production at 0.5 to 2.5 uM pre-incubated for 120 mins before jump dilution with incubation medium containing L-Trp and further incubated for 20 mins by HPLC analysis.
Target sequence in this assay (P14902 whole entry, looked up): as above
For data set [4] the target is unchanged. As to the kind of experiment: Inhibition of full-length human IDO1 expressed in Escherichia coli Rosetta (DE3) assessed as reduction in kynurenine production at 0.5 to 2.5 uM pre-incubated for 120 mins in presence of ascorbate and MB reductants and catalase before jump dilution with incubation medium containing L-Trp and further incubated for 20 mins by HPLC analysis.
Target sequence in this assay (P14902 whole entry, looked up): as above

For data set [5] the target is unchanged. The data set is described as follows: Binding affinity to human IDO1 expressed in Escherichia coli Rosetta (DE3) assessed induction of shift in Soret peak in phosphate buffer at 200 uM measured over 4 hrs by UV-vis absorption spectroscopy.
Target sequence in this assay (P14902 whole entry, looked up): as above
For data set [6] the target is unchanged. The data set is described as follows: Binding affinity to human IDO1 expressed in Escherichia coli Rosetta (DE3) assessed induction of shift in Soret peak in phosphate buffer at 200 uM in presence of ascorbate and MB reductants measured over 4 hrs by UV-vis absorption spectroscopy.
Target sequence in this assay (P14902 whole entry, looked up): as above
Data set [7] has the same target. The data set is described as follows: Inhibition of full-length human IDO1 expressed in Escherichia coli Rosetta (DE3) assessed as reduction in kynurenine production at 0.5 to 1 uM pre-incubated for 120 mins in presence of ascorbate and MB reductants and catalase before jump dilution with incubation medium containing L-Trp and further incubated for 20 mins by HPLC analysis.
Target sequence in this assay (P14902 whole entry, looked up): as above

For data set [8] the target is unchanged. As to the kind of experiment: Inhibition of purified human recombinant IDO1 expressed in Escherichia coli assessed as reduction in kynurenine production incubated up to 90 mins using L-Trp substrate by Ehrlich's reagent based spectrophotometry.
Target sequence in this assay (P14902 whole entry): as the sequence (P14902 whole entry, looked up) above
The target is the same in data set [9]. As to the kind of experiment: Inhibition of full-length human IDO1 expressed in Escherichia coli Rosetta (DE3) assessed as reduction in kynurenine production at 0.5 to 1 uM pre-incubated for 120 mins in presence of ascorbate and MB reductants before jump dilution with incubation medium containing L-Trp and further incubated for 20 mins by HPLC analysis.
The target is the same in data set [10]. As to the kind of experiment: Inhibition of full-length human IDO1 expressed in Escherichia coli Rosetta (DE3) assessed as reduction in kynurenine production at 0.5 to 1 uM pre-incubated for 120 mins before jump dilution with incubation medium containing L-Trp and further incubated for 20 mins by HPLC analysis.
For data set [11] the target is unchanged. The data set is described as follows: Inhibition of IDO1 in IFNgamma-induced human HeLa cells incubated for 5 hrs by Ehrlich's reagent based assay. In kind it is cell-based.
Target sequence in this assay (P14902 whole entry): as the sequence (P14902 whole entry, looked up) above
Data set [12] has the same target. The conditions noted are these: 40 uM.
Description: Inhibition of full-length human IDO1 expressed in Escherichia coli Rosetta (DE3) assessed as reduction in kynurenine production at 40 uM pre-incubated for 120 mins before L-Trp addition by HPLC analysis relative to control
Data set [13] shares this target. The conditions noted are these: 20 to 40 uM.
Description: Inhibition of full-length human IDO1 expressed in Escherichia coli Rosetta (DE3) assessed as reduction in kynurenine production at 20 to 40 uM pre-incubated for 120 mins before L-Trp addition in presence of ascorbate and MB reductants by HPLC analysis relative to control
Data set [14] shares this target. The note with it: 20 uM.
Description: Inhibition of full-length human IDO1 expressed in Escherichia coli Rosetta (DE3) assessed as reduction in kynurenine production at 20 uM pre-incubated for 120 mins before L-Trp addition by HPLC analysis relative to control
For data set [15] the target is unchanged. The note with it: 20 to 40 uM. The source holds these as a separate data set.
Description: Inhibition of full-length human IDO1 expressed in Escherichia coli Rosetta (DE3) assessed as reduction in kynurenine production at 20 to 40 uM pre-incubated for 120 mins before jump dilution with incubation medium containing L-Trp and further incubated for 20 mins by HPLC analysis
The target is the same in data set [16]. The conditions noted are these: 20 to 40 uM. The source holds these as a separate data set.
Description: Inhibition of full-length human IDO1 expressed in Escherichia coli Rosetta (DE3) assessed as reduction in kynurenine production at 20 to 40 uM pre-incubated for 120 mins before L-Trp addition in presence of ascorbate and MB reductants and catalase by HPLC analysis relative to control
Data set [17] has the same target. As to the kind of experiment: Binding affinity to human IDO1 expressed in Escherichia coli Rosetta (DE3) assessed complete protection against heme degradation at 200 uM in presence of ascorbate and MB reductants measured at 45 mins by UV-vis absorption spectroscopy.
For data set [18] the target is unchanged. As to the kind of experiment: Binding affinity to human IDO1 expressed in Escherichia coli Rosetta (DE3) assessed induction of shift in Soret peak in phosphate buffer at 200 uM in presence of ascorbate and MB reductants measured over 60 mins by UV-vis absorption spectroscopy (reference value: […] nm).
Data set [19] has the same target. As to the kind of experiment: Inhibition of full-length human IDO1 expressed in Escherichia coli Rosetta (DE3) assessed as enzyme activity by measuring kynurenine production at 40 to 200 uM pre-incubated for 120 mins in presence of ascorbate and MB reductants before jump dilution with incubation medium containing L-Trp and further incubated for 20 mins by HPLC analysis. The arrangement: scale not given: the % may be the effect or the level left.

The target is the same in data set [20]. As to the kind of experiment: Inhibition of full-length human IDO1 expressed in Escherichia coli Rosetta (DE3) assessed as reduction in kynurenine production at 40 to 200 uM pre-incubated for 120 mins before jump dilution with incubation medium containing L-Trp and further incubated for 20 mins by HPLC analysis.
Data set [21] shares this target. The data set is described as follows: Selectivity ratio of IC50 for inhibition of IDO1 (unknown origin) by enzymatic assay to IC50 for inhibition of IDO1 (unknown origin) by cell based assay.
Data set [22] shares this target. As to the kind of experiment: Inhibition of IDO1 (unknown origin) by enzymatic assay.
Target sequence in this assay (P14902 whole entry): as the sequence (P14902 whole entry, looked up) above
For data set [23] the target is unchanged. As to the kind of experiment: Inhibition of full-length human IDO1 expressed in Escherichia coli Rosetta (DE3) using L-Trp substrate by HPLC analysis.
Target sequence in this assay (P14902 whole entry): as the sequence (P14902 whole entry, looked up) above
Data set [24] shares this target. The data set is described as follows: Inhibition of IDO1 (unknown origin) by cell based assay.
Target sequence in this assay (P14902 whole entry): as the sequence (P14902 whole entry, looked up) above
Data set [25] shares this target. The data set is described as follows: Inhibition of full-length human IDO1 expressed in Escherichia coli Rosetta (DE3) assessed as enzyme activity by measuring kynurenine production at 40 to 200 uM pre-incubated for 120 mins in presence of ascorbate and MB reductants and catalase before jump dilution with incubation medium containing L-Trp and further incubated for 20 mins by HPLC analysis.

Activity calls are given as the source filed them. The calls are words filed in the database; no cut-off is given here.

In the case of `Oc1ccc(Cl)cc1-c1c[nH]nn1`, in data set [1], the pKa (as a rule, the negative logarithm of the acid dissociation constant) came out at 8.3.

Take `CC1=CC(=O)c2ccccc2C1=O`: the inhibition result in data set [2] and in [3] was “Active” each time. The inhibition (usually the drop in the measured response relative to a control, in per cent) in data set [4] is “inactive”. Moreover, the result in data set [5] and in [6] was inactive.

As for `CC1(C)CCC2=C(O1)c1ccccc1C(=O)C2=O` [LAPACHONE], in data set [7], the inhibition result was “inactive”. The results for the IC50 in [8] and in data set [11] were 440 nM and 1000 nM, respectively. Also, the inhibition entry in data set [9] and in [10] was “Active” throughout. For the same compound, the result in data set [5] and in data set [6] was inactive.

Consider `Nc1nonc1/C(=N/O)Nc1ccc(F)c(Cl)c1`, for which the inhibition worked out at 65% in data set [12], 100% in [13], 82% in [14] and 100% in data set [16]. For the same compound, in [15], the inhibition entry is “Active”.

For the compound `Clc1ccc(Nc2cn[nH]n2)cc1`, the outcome in data set [17] was inactive. For the same compound, the Activity was determined as 425 nm in data set [18] and 0% in data set [19]. Further, in data set [20], the inhibition entry is “Active”. Besides, the Ratio IC50 in data set [21] came to 500. Moreover, the IC50 (in general, the point on the concentration scale where inhibition reaches its midpoint) in data set [22] turned out to be 11300 nM; in data set [23], 70000 nM; in data set [24], 23 nM. Also, the inhibition result in data set [25] was “inactive”.
